Patent US8343531B2, “Composition containing peptide as active ingredient” (Meiji Co., Ltd., priority 2006, dated 2013)
Residues, ends and D or L forms follow the SMILES beside them.

Legend:
[1] = tested on: Wister rats; assay: Oral glucose tolerance test; assay type: in vivo; conditions: 0.1 g/kg BW oral with glucose 2.0 g/kg BW
Experimental: Male Wister rats each weighing about 360 g (6 rats per group) were used. The rats were fasted for 18 hours and then administered with 30% glucose aqueous solution in a dose of 2.0 g/kg body weight (BW). […] After 30, 60, 90, 120 and 180 minutes, blood was collected from a rat tail vein and measured for its blood glucose level with Diasensor (manufactured by ARKRAY, Inc.).

[2] = tested on: isolated epitrochlearis muscles; assay: Rate of glucose uptake into isolated muscles; assay type: cell-based, Wister rats; conditions: 1 mM dipeptide, 30 min at 30° C., then 8 mM 2-deoxyglucose 20 min; average ± SD; control 0.95 ± 0.10
Experimental: Epitrochlearis muscles were excised from male Wister rats (each weighing 120 g) (16 rats) under pentobarbital anesthesia carefully so as not to hurt the epitrochlearis muscles. The epitrochlearis muscles were incubated at 35° C. for 1 hour in KRH buffer (136 mM NaCl, 4.7 mM KCl, 1.25 mM CaCl2, 1.25 mM MgSO4.7H2O, 20 mM Hepes, 1 mg/mL BSA, pH 7.4; referred to hereinafter as KRH buffer) containing 0.1% bovine serum albumin (BSA), 8 mM glucose and 32 mM mannitol, in 5% CO2/95% O2. Thereafter, the epitrochlearis muscles were removed and incubated (8 samples per group) at 30° C. for 30 minutes in KRH buffer containing 0.1% BSA, 40 mM mannitol, and 1 mM Ile-Leu (Kokusan Chemical Co., Ltd.), 1 mM Ile-Trp (Kokusan Chemical Co., Ltd.), or the milk whey protein hydrolysate containing 1 mM leucine in terms of amino acid, produced in Production Example 1, in 5% CO2/95% O2. Then, the epitrochlearis muscles were removed and incubated at 30° C. for accurately 20 minutes in KRH buffer containing 0.1% BSA, 32 mM mannitol and 8 mM 2-deoxyglucose, in 5% CO2/95% O2. […] Thereafter, the frozen epitrochlearis muscles were homogenized in 0.3 M perchloric acid aqueous solution, and after the resulting suspension was neutralized, the amount of 2-deoxyglucose-6-phosphate in the muscles was quantified by an enzymatic method to determine the rate of glucose uptake.

[3] = tested on: Rat L6 myotubes; assay: Rate of glucose uptake into muscle cells; assay type: cell-based; conditions: 1 mM dipeptide, 3 hours, then 8 mM 2-deoxyglucose 10 minutes; average ± SD; control 1.21 ± 0.07
Experimental: Rat L6 myotubes were cultured in an Eagle medium containing 10% bovine serum (α-MEM) in a Petri dish coated with type 1 collagen in 5% CO2/95% O2. The cells were recovered by trypsin treatment in a usual manner and seeded at a density of 50,000 cells/well on a 48-well plate coated with type 1 collagen, and cultured for 3 days to make the cells confluent. After the medium was removed, 500 μL of an Eagle medium containing 2% bovine serum (α-MEM) was added to each well, and then the cells were cultured for 5 days thereby inducing differentiation. Each well was washed with 500 μL KRH buffer (136 mM NaCl, 4.7 mM KCl, 1.25 mM CaCl2, 1.25 mM MgSO4.7H2O, 20 mM Hepes, 1 mg/mL BSA, pH 7.4) carefully such that the cells were not detached. Then, […] KRH buffer containing 1 mM Ile-Leu, Ile-Trp, Ala-Leu, Val-Leu, Gly-Leu, Asp-Leu, Lys-Ile, Leu-Leu, Ile-Ile, Leu-Ile, Ile-Asn, Leu-Ala, Leu-Glu, Leu-Val or Ile-Val (Kokusan Chemical Co., Ltd.) was added to each well and reacted for 3 hours with the cells. Thereafter, the KRH buffer was removed, and […] buffer containing 8 mM 2-deoxyglucose was added to each well and reacted for accurately 10 minutes with for the cells. The reaction was terminated with […] 0.1 N NaOH, followed by neutralization with an equal volume of 0.1 N HCl, and then the amount of 2-deoxyglucose 6-phosphate in the cells was quantified by an enzymatic method to determine the rate of glucose uptake.

[4] = tested on: isolated epitrochlearis muscles; assay: Influence of PI3K inhibitor and GLUT-4 inhibitor on the rate of glucose uptake into isolated muscles; assay type: cell-based, Wister rats; conditions: 1 mM Ile-Leu alone; average ± SD; control 0.95 ± 0.10
Experimental: Epitrochlearis muscles were excised from male Wister rats (each weighing 120 g) (8 samples per group) under pentobarbital anesthesia carefully so as not to hurt the epitrochlearis muscles. The epitrochlearis muscles were incubated at 35° C. for 1 hour in KRH buffer containing 0.1% BSA, 8 mM glucose and 32 mM mannitol, in 5% CO2/95% O2. Thereafter, the epitrochlearis muscles were removed and incubated at 30° C. for 30 minutes in KRH buffer containing 0.1% BSA, 40 mM mannitol, and 1 mM Ile-Leu (Kokusan Chemical Co., Ltd.), 1 mM Ile-Leu+10 μM LY294002 (Sigma) or 1 mM Ile-Leu+70 μM cytochalasin B (Sigma) in 5% CO2/95% O2. Then, the epitrochlearis muscles were removed and incubated at 30° C. for accurately 20 minutes in KRH buffer containing 0.1% BSA, 32 mM mannitol and 8 mM 2-deoxyglucose, in 5% CO2/95% O2. Immediately after incubation for accurately 20 minutes, the epitrochlearis muscles were frozen with liquid nitrogen. Thereafter, the frozen epitrochlearis muscles were homogenized in 0.3 M perchloric acid aqueous solution, and after the resulting suspension was neutralized, the amount of 2-deoxyglucose 6-phosphate in the muscles was quantified by an enzymatic method to determine the rate of glucose uptake.

Row | Molecule | Rate of glucose uptake into muscle cells [3] [nmol/min/well] | also measured
1 | CC[C@H](C)[C@H](N)C(=O)N[C@@H](CC(C)C)C(=O)O [Ile-Leu, Isoleucyl leucine] (H-Ile-Leu-OH) | 1.61 ± 0.05 | Blood glucose level (change) ([1]; 0 minute, fasted rats, average ± SD): 0 ± 0 mg/100 mL; Blood glucose level (change) ([1]; 30 minutes, glucose alone 62 ± 4): 44 ± 8 mg/100 mL; Blood glucose level (change) ([1]; 60 minutes, glucose alone 61 ± 4): 57 ± 7 mg/100 mL; Blood glucose level (change) ([1]; 90 minutes, glucose alone 57 ± 4): 35 ± 4 mg/100 mL; Blood glucose level (change) ([1]; 120 minutes, glucose alone 27 ± 6): 19 ± 3 mg/100 mL; Blood glucose level (change) ([1]; 180 minutes, glucose alone 5 ± 1): 1 ± 3 mg/100 mL; Rate of glucose uptake into isolated skeletal muscles [2]: 1.88 ± 0.40 μmol/min/g muscle; Rate of glucose uptake into isolated skeletal muscles [4]: 1.88 ± 0.40 μmol/min/g muscle
2 | Ala-Leu | 1.91 ± 0.07 | 
3 | Asp-Leu | 1.81 ± 0.50 | 
4 | Gly-Leu | 1.81 ± 0.04 | 
5 | Ile-Asn | 1.92 ± 0.06 | 
6 | Ile-Ile | 1.88 ± 0.05 | 
7 | Ile-Trp | 1.91 ± 0.06 | Rate of glucose uptake into isolated skeletal muscles [2]: 1.92 ± 0.31 μmol/min/g muscle
8 | Ile-Val | 1.80 ± 0.07 | 
9 | Leu-Ala | 2.09 ± 0.08 | 
10 | Leu-Glu | 2.16 ± 0.05 | 
11 | Leu-Ile | 1.73 ± 0.04 | 
12 | Leu-Leu | 1.75 ± 0.05 | 
13 | Leu-Val | 1.74 ± 0.06 | 
14 | Lys-Ile | 2.34 ± 0.06 | 
15 | Val-Leu | 1.76 ± 0.07 | 
